Source: patent US20260345802A1, “ANTIBODY-DRUG CONJUGATES AND LINKERS AND METHODS OF USE THEREOF” (priority 2023, published 2026)
Where a SMILES comes first, the peptide text is derived from it. [ ]: non-standard residue; d: D form. Dolaproine = CO[C@@H]([C@@H]1CCCN1)[C@@H](C)C(=O)O; Dil = CC[C@H](C)[C@H](NC)[C@@H](CC(=O)O)OC; NMeV = CN[C@H](C(=O)O)C(C)C

System: TNBC tumor tissue
Assay: Single-cell RNA sequencing of tumors
Type: in vivo, mouse
Settings: scRNA-Seq, payload effect
Protocol: The flash-frozen tissue samples (25 mg) were collected and stored at −80° C. until processing. Chromium Next GEM RNA Profiling Sample Fixation Kit (PN-1000414, 10× Genomics, Pleasanton, CA, USA) was used to fix tissue by mixing 1 mL of fixation buffer with 25 mg of tissue, followed by fine mince and incubation at 4° C. for 16-24 hours without agitation. After fixation, tissue samples were centrifuged, washed with chilled PBS, and resuspended in 1 mL of tissue resuspension buffer. The fixed tissues supplemented with pre-warmed dissociation buffer were dissociated using an Octo Dissociator according to the manufacturer's instructions. […] Cell concentration was determined using an automated cell counter with fluorescent nucleic acid staining. […]
A 10× single-cell library was prepared using the Chromium Fixed RNA Kit (Cat #1000497, 10× Genomics). […] The quality control of cDNA was evaluated using an Agilent Bioanalyzer aiming for the final library molecules with P5 and P7 priming sites used in Illumina sequencers. For each cDNA sample, single-cell library construction was started using the 10× barcoded ligated probe products, and sequenced using the NovaSeq 6000 flow cell 100-cycle kit (Illumina, San Diego, CA, USA) in a Read1:i7:i5:Read2 format of 28:10:10:90 bp at 10× Genomics. […]

**Q.** For `CC[C@H](C)[C@@H]([C@@H](CC(=O)N1CCC[C@H]1[C@H](OC)[C@@H](C)C(=O)N[C@@H](Cc1ccccc1)C(=O)O)OC)N(C)C(=O)[C@@H](NC(=O)[C@@H](NC)C(C)C)C(C)C` [MMAF, Monomethylauristatin F] (H-[NMeV]V[Dil][Dolaproine]F-OH), which “tumor cell distribution in mitotic stages” value is on record?
**A.** inhibition of cell proliferation
